Earlier results, collected in patent US20210400960A1, “INSECT REPELLENT COMPOSITION” (Mother Earth Dermatics (MED) GMBH, priority 2018, published 2021).

System: insects
Conditions: depending on the concentration

Q: With `CCN(CC)C(=O)c1cccc(C)c1` [DEET, N,N-diethyl-m-toluamide] as the compound, how does the “Duration of repellent effect” value read?
A: 6 to 8 h
